Where a name gives a salt, the structure may show the parent alone.

The text below walks through data of US9733262B2, “Method for measuring blood coagulation” (SEKISUI MEDICAL CO., LTD., priority 2009, dated 2017).

In this assay the test system is commercially available normal plasma (Coagtrol N). Kind of assay: Fibrinogen measurement by thrombin time method: coagulation time and change in scattered light intensity of normal plasma after adding thrombin reagent. Conditions: for coagulation time versus addition amount (FIG. 3): agent added to HEPES buffer (pH 7.5) specimen diluent, buffer alone 4.6 seconds. Format: biochemical. How it is done:
When a fibrinogen concentration in a plasma specimen is measured by a thrombin time method, in general, thrombin is added to plasma to measure a coagulation time, and the concentration is determined from a standard curve prepared using standard solutions having known fibrinogen concentrations. In the procedure, 90 μL of a specimen diluent are added to and mixed with 10 μL of specimen plasma, subsequently 50 μL of a thrombin-containing reagent are added as a blood coagulation activator-containing reagent, and a coagulation time is measured.
In this example, commercially available normal plasma (Coagtrol N, manufactured by Sysmex Corporation) as the plasma specimen, a Coagpia Fbg thrombin reagent (manufactured by Sekisui Medical Co., Ltd.) as the thrombin-containing reagent, and a full-automated blood coagulation time analyzer Coagrex 800 (manufactured by Sysmex Corporation) as a coagulation time measurement apparatus were used. This apparatus employs a scattered light detection method, and change data of scattered light intensity with time can also be obtained along with the coagulation time.
When an HEPES buffer (pH 7.5) was used as the specimen diluent, the commercially available normal plasma coagulated in several seconds (4.6 seconds).
Commercially available normal plasma was measured in the same manner as in Example 1 using the specimen diluent (HEPES buffer, pH 7.5) in which the amount of the blood coagulation time prolonging agent added was adjusted so as to obtain the similar coagulation time. The comparative results of the maximum of a change ΔH in scattered light intensity and of the simultaneous reproducibility of the measurements between in the conventional method and in the present invention were shown in Table 1.
A specimen diluent containing sodium chloride as the blood coagulation time prolonging agent was defined as a conventional method A and a specimen diluent further containing polyethylene glycol (molecular weight: 20000) (hereinafter, referred to as PEG 20000) as an enhancer of a change in light intensity in the conventional method A was defined as a conventional method B, and the specimen diluents were compared with a specimen diluent employing aminoguanidine hydrochloride (present invention) which served as both of the blood coagulation time prolonging agent and the enhancer of a change in light intensity. It should be noted that an HEPES buffer (pH 7.5) was used as a buffer in all of the cases. Further, the concentration of PEG 20000 to be added in the conventional method B was set to 0.1%, because a large amount of PEG 20000 could increase the viscosity of diluent and reduce the accuracy of sampling. The coagulation time of commercially available normal plasma was measured in the same manner as in Example 1 using each specimen diluent. The change of the scattered light intensity in the conventional method B with the addition of PEG 20000 became larger than in the conventional method A without the addition.

The mark [1] stands for this setting: Table 1, agent in specimen diluent (HEPES buffer pH 7.5): NaCl 145 mM, NaBr 110, KBr 105, KCl 135, LiCl 135, guanidine HCl 90, guanidine phosphate 30, guanidine sulfamate 55, aminoguanidine HCl 90, arginine HCl 55, arginine methyl ester 17 mM, single measurement for conventional methods (2)-(5), ten times for the others.
[2] abbreviates: Table 2, specimen diluent HEPES buffer pH 7.5, NaCl 150 mM (A), NaCl 150 mM + PEG 20000 0.1% (B), aminoguanidine hydrochloride 90 mM, mean of three times measurement.

`N=C(N)NN` [Aminoguanidine hydrochloride]: the “coagulation time versus addition amount (FIG. 3)” value is “prolonged in an addition concentration-dependent manner”. Besides, under setting [1], the Coagulation time was determined as 9.7 s. In addition, the Coagulation time under setting [2] is 10.4 s. In the case of `Cl.N=C(N)NCCC[C@H](N)C(=O)O` [Arginine hydrochloride], the Coagulation time under setting [1] turned out to be 10.3 s. Consider `COC(=O)[C@@H](N)CCCNC(=N)N` [Arginine methyl ester], for which the Coagulation time under setting [1] was found to be 11 s.

Compound `N=C(N)N` [Guanidine hydrochloride] came in with a Coagulation time under setting [1] of 10.3 s. Compound `N=C(N)N.O=P(O)(O)O` [Guanidine phosphate] registered a Coagulation time under setting [1] of 10.4 s.

As to `N=C(N)N.NS(=O)(=O)O` [Guanidine sulfamate], the Coagulation time under setting [1] came to 11.2 s.

As to `[Cl-].[Li+]` [Lithium chloride], the Coagulation time under setting [1] was 10.8 s.

Regarding `[Br-].[K+]` [Potassium bromide], under setting [1], the Coagulation time was 11.4 s. As to `[Cl-].[K+]` [Potassium chloride], the Coagulation time under setting [1] was determined as 10.8 s. Turning to `[Br-].[Na+]` [Sodium bromide], the “coagulation time versus addition amount (FIG. 3)” value is “prolonged in an addition concentration-dependent manner”. The Coagulation time under setting [1] was 11.3 s. As for `[Cl-].[Na+]` [Sodium chloride], the “coagulation time versus addition amount (FIG. 3)” value was “prolonged in an addition concentration-dependent manner”. In addition, the Coagulation time under setting [1] turned out to be 10.7 s. Besides, the Coagulation time under setting [2] was 11.6 s.
